Laboratory results as given in patent US4659716A, “Antihistaminic 8-(halo)-substituted 6,11-dihydro-11-(4-piperidylidene)-5H-benzo[5,6]cyclohepta[1,2-b]pyridin es” (Schering Corporation, priority 1986, dated 1987).

Tests used:
[1] = test system: histamine-induced paw edema; test: Histamine-induced paw edema in mice (oral); type: in vivo, mice (male CF1)
Procedure: For example, the ability of the compounds to reduce histamine-induced paw edema in mice may be measured by use of the following method.
Male CF1 mice, 25-30 g, are housed under conditions of controlled temperature and humidity with a 12 hour dark/light cycle. Food and water are allowed ad libitum. The mice are randomly assigned to the treatment groups. One hour after treatment with a compound of the invention or vehicle, the mice are lightly anesthetized with ether. The left hind paw of each mouse serves as a control and is injected with 25 μl of isotonic saline. The right hind paw serves as the experimental paw and is injected with 25 μl of isotonic saline containing 13 μg histamine dihydrochloride. Thirty minutes later the mice are killed by cervical dislocation and both hind paws of each mouse are removed by cutting at the tarsal joint. The weight of each paw is recorded and the difference in weight between the compound-treated and the placebo-treated groups is evaluated using Student's "t" test. The ED50 values (the dose causing 50% inhibition of histamine-induced edema) and 95% confidence limits are determind by the Linear Least Square Dose-Response method [Brownlee, K. A., "Statistical Theory And Methodology In Science and Engineering", 2nd Ed., J. Wiley and Sons, New York, 1965, pp. 346-349].

[2] = test system: behavior, neurologic function and autonomic function in mice; conditions: po; score of 2 or greater in at least 3 of 6 animals
Description: A semiquantitative scoring scale was used where signs normally present (e.g., spontaneous activity, alertness, pupil size) were assigned a "normal" score of 0 and scores of +1, +2 and +3 indicated slight, moderate and marked increases and scores of -1, -2 and -3 indicated slight, moderate and marked decreases from "normality". When a sign occurred that is not normally present (e.g., convulsions, tremors), its magnitude was graded on a 1-3 scale. Each treatment group consisted of 6 animals and evaluations were conducted 1 hour after dosing. Additional observations for lethality were made for up to 24 hours after dosing. Incidence is defined as the observation occurring in an animal with a score of 2 or greater according to the scoring method defined above.
^a Minimal effective dose, defined as the lowest dose that produced a

[3] = Antagonism of physostigmine lethality (B); type: in vivo, mice; conditions: mouse, physostigmine-induced lethality; oral, unit inferred; read-out: ED50 in the physostigmine-induced lethality test
Procedure: B. Antagonism of Physostigmine Lethality. […] Physostigmine salicylate (b 1.0 mg/kg s.c.) produces 100% lethality when administered to mice grouped 10 per plastic cage (11×26×13 cm). Test agents were administered orally 30 minutes prior to physostigmine. The number of survivors were counted 20 minutes after physostigmine administration.

[4] = test system: histamine-induced lethality; test: Prevention of histamine-induced lethality in guinea pigs (A); type: in vivo, guinea pigs (female albino); conditions: Cavia porcellus; oral, 1 hour prior to i.v. histamine 1.1 mg/kg; read-out: Antihistaminic Activity, A. G. pig. p.o. ED50
Procedure: A. Prevention of histamine-induced lethality in guinea pigs. […] Doses of the antagonists were administered orally to separate groups of fasted animals 1 hour prior to the challenge with histamine and protection from death recorded for 30 minutes after histamine. ED50 values were determined for each drug by […].

CNS activity = test: CNS test procedures B, C and D taken together; type: in vivo, mice; conditions: oral
Procedure: C. […] Mice were injected with 0.6% aqueous acetic acid at 10 mg/kg i.p. 15 minutes after oral administration of the test drug. The number of writhes for each animal was counted during a 10 minute period starting 3 minutes after acetic acid treatment. A writhe was defined as a sequence of arching of the back, pelvic rotation and hind limb extension.
One hour after oral administration of the test drug or vehicle, mice were administered a 13 mA, 60 cycle a.c. electroconvulsant shock (ECS) for 0.2 seconds via corneal electrodes.

[5] = Toxicity (no method given); conditions: in vivo

Row | SMILES | Increased Paw Weight, Mean ([1]; oral dose 0.03 mg/kg, 8 animals) [mg] | Increased Paw Weight, Mean ([1]; oral dose 0.1 mg/kg, 7 animals) [mg] | Increased Paw Weight, Mean ([1]; oral dose 0.3 mg/kg, 8 animals) [mg] | Increased Paw Weight, Mean ([1]; oral dose 1.0 mg/kg, 8 animals) [mg] | MED, Lethality [2] [mg/kg] | ED50 [3] [mg/kg] | ED50 ([1]; Mus musculus, po, 1 h) [mg/kg] | ED50 [4] [mg/kg] | Activity in all of the CNS test procedures (CNS activity) | Toxicity [5]
1 | Clc1ccc2c(c1)CCc1cccnc1C2=C1CCNCC1 [Compound A, 8-chloro-6,11-dihydro-11-(4-piperidylidene)-5H-benzo[5,6]cyclohepta[1,2-b]pyridine] | 19.9 | 13.0 | 6.1 | 2.5 | 300 | – | – | – | – | –
2 | Fc1ccc2c(c1)CCc1cccnc1C2=C1CCNCC1 [Compound B, 8-fluoro-6,11-dihydro-11-(4-piperidylidene)-5H-benzo[5,6]cyclohepta[1,2-b]pyridine] | – | – | – | – | – | > 320 | < 3 | 0.09 | relatively inactive | very low toxicity
